How the values were obtained:
[1] = target: Beta-3 adrenergic receptor (Homo sapiens, UniProt P13945); assay: DRUGMATRIX: Adrenergic beta3 radioligand binding (ligand: [125I] Cyanopindolol); type: cell membranes, HEK293, Membrane; details: hek293; Not Active = under 50% inhibition at 10 µM
[2] = target: Aldo-keto reductase family 1 member B1 (Rattus norvegicus, UniProt P07943); assay: biochemical; type: tissue-based, Lens of camera-type eye;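 further: inhibition of aldose reductase enzyme activity, measured with DL-glyceraldehyde as the substrate; in other assays of this panel Not Active means under 50% inhibition at 10 µM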
[3] = DRUGMATRIX: Glutamate, NMDA, Agonism radioligand binding (ligand: [3H] CGP-39653); type: cell membranes, Rattus norvegicus, Wistar, Cerebral cortex, Membrane; details: Not Active = under 50% inhibition at 10 µM
[4] = target: T1, 3-hydroxy-3-methylglutaryl-coenzyme A reductase (Homo sapiens, UniProt P04035); parameters: species or system Escherichia coli;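 further: enzyme inhibition assay of HMG-CoA reductase using radiolabeled [14C]HMG-CoA as substrate; in other assays of this panel Not Active means under 50% inhibition at 10 µM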
T1 sequence (P04035 whole entry): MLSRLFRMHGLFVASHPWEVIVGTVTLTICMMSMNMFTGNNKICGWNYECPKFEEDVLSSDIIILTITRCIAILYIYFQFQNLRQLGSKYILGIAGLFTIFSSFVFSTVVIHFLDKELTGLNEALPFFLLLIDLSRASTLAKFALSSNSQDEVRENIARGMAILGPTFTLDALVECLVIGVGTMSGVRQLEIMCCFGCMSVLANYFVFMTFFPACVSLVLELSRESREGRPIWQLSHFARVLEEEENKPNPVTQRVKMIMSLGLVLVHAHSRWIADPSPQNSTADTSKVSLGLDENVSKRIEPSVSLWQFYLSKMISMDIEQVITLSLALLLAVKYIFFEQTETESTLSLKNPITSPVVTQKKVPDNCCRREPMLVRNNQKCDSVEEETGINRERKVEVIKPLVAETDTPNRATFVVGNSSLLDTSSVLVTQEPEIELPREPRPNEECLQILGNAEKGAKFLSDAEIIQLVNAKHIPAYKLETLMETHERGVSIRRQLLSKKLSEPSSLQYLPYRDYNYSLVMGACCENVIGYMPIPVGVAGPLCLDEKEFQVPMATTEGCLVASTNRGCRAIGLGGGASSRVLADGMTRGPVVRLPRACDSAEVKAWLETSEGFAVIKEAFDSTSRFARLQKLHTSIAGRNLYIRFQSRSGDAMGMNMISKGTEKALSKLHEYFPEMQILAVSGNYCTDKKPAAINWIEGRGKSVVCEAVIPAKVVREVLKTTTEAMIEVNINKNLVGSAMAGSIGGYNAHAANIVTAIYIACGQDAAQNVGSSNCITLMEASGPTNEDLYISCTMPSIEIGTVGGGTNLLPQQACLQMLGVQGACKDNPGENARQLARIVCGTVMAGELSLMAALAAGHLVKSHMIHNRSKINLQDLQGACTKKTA

[5] = target: T2, Muscarinic acetylcholine receptor M4 (Homo sapiens, UniProt P08173); type: cell membranes, CHO-K1, Membrane; details: cho-k1; further: in other assays of this panel Not Active means under 50% inhibition at 10 µM
T2 sequence (P08173 whole entry): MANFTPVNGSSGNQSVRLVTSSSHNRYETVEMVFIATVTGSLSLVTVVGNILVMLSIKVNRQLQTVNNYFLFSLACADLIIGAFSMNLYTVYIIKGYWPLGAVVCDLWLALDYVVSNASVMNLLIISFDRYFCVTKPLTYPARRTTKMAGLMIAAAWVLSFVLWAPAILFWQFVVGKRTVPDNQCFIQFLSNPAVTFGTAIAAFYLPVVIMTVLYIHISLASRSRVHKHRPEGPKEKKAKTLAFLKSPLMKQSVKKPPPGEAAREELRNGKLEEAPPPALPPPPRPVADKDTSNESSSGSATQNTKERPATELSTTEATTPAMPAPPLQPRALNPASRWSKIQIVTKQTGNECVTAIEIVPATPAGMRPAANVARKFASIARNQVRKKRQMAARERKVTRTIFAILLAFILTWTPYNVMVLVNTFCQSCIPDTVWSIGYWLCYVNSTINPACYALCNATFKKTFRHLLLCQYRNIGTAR

[6] = DRUGMATRIX: Nicotinic Acetylcholine radioligand binding (ligand: [125I] Epibatidine); type: cell membranes, Membrane; details: imr-32; Not Active = under 50% inhibition at 10 µM
[7] = target: T3, Angiotensin-converting enzyme (Oryctolagus cuniculus, UniProt P12822); type: tissue-based, Lung;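 further: enzymatic inhibition of angiotensin-converting enzyme measured with FAPGG as the substrate; in other assays of this panel Not Active means under 50% inhibition at 10 µM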
T3 sequence (P12822 whole entry): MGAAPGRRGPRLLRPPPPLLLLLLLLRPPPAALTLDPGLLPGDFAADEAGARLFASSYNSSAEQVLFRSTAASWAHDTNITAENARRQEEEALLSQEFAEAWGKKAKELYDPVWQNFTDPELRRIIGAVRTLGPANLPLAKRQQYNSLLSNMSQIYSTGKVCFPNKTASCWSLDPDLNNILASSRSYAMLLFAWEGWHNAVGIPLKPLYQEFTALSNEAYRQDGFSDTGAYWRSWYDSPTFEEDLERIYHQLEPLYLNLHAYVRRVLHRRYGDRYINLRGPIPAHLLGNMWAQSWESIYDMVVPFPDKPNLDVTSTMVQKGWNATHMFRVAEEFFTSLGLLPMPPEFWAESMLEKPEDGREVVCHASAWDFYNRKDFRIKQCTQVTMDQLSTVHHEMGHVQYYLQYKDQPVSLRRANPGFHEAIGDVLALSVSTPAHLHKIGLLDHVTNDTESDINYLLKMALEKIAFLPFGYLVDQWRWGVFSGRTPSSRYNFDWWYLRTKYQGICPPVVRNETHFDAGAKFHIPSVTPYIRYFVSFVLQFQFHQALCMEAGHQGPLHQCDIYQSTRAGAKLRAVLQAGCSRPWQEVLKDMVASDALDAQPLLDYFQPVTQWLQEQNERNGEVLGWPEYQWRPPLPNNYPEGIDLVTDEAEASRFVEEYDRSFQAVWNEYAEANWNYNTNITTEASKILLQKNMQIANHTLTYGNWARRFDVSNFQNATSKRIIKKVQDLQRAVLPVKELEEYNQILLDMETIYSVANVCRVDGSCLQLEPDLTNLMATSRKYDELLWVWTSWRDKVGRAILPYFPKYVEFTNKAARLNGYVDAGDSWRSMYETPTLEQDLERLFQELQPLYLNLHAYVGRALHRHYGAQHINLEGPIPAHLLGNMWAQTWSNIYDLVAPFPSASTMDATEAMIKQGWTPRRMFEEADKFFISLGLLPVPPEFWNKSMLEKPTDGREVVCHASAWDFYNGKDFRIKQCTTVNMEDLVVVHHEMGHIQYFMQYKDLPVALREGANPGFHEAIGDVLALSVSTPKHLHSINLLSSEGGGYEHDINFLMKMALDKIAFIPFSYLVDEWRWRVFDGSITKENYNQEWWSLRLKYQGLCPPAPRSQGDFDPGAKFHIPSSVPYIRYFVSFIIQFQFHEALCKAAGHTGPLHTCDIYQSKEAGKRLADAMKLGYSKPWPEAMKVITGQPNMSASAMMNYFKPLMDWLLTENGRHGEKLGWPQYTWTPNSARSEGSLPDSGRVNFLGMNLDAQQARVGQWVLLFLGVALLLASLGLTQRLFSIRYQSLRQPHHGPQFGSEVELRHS

Sequence of Beta-3 adrenergic receptor (P13945 whole entry): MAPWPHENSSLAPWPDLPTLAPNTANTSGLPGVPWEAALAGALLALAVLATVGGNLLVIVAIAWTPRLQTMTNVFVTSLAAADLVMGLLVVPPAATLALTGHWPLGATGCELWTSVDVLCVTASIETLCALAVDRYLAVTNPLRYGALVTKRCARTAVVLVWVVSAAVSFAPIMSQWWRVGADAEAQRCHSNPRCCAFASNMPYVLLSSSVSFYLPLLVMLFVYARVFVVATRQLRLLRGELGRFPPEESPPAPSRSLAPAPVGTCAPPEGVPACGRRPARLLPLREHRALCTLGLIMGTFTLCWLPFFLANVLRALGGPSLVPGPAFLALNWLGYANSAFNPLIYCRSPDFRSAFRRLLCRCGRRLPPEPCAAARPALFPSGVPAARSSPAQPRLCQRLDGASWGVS

| Compound | IC50 [1] | IC50 [2] | IC50 [3] | Ki [3] | IC50 [4] | IC50 [5] | IC50 [6] | Ki [6] | IC50 [7] | IC50 ([2]; read-out: IC50) [nM] | Ki [1] | Ki [2] | Ki [4] | Ki [5] | Ki [7] |
| --- | --- | --- | --- | --- | --- | --- | --- | --- | --- | --- | --- | --- | --- | --- | --- |
| CC(C)(CO)C(O)C(=O)NCCCO (stereo unspecified) [PANTHENOL] | Not Active | Not Active | Not Active | Not Active | Not Active | Not Active | Not Active | Not Active | Not Active |  |  |  |  |  |  |
| COc1ccc(Cc2nccc3cc(OC)c(OC)cc23)cc1OC [PAPAVERINE] | Not Active | Not Active | Not Active | Not Active | Not Active | Not Active | Not Active | Not Active | Not Active |  |  |  |  |  |  |
| OCCN1CCN(CCCN2c3ccccc3Sc3ccc(Cl)cc32)CC1 [PERPHENAZINE] | Not Active | Not Active | Not Active | Not Active | Not Active | Not Active | Not Active | Not Active | Not Active |  |  |  |  |  |  |
| CCCCC1C(=O)N(c2ccccc2)N(c2ccccc2)C1=O [PHENYLBUTAZONE] | Not Active | Not Active | Not Active | Not Active | Not Active | Not Active | Not Active | Not Active | Not Active |  |  |  |  |  |  |
| Cc1cccc(Nc2cc(Cl)nc(SCC(=O)O)n2)c1C [PIRINIXIC ACID] | Not Active |  | Not Active | Not Active | Not Active | Not Active | Not Active | Not Active | Not Active | 2820 |  |  |  |  |  |
| CC(C)(Sc1cc(C(C)(C)C)c(O)c(C(C)(C)C)c1)Sc1cc(C(C)(C)C)c(O)c(C(C)(C)C)c1 [PROBUCOL] | Not Active | Not Active | Not Active | Not Active | Not Active | Not Active | Not Active | Not Active | Not Active |  |  |  |  |  |  |
| COBALT(II) ACETYLACETONATE | Not Active | Not Active | Not Active | Not Active | Not Active | Not Active | Not Active | Not Active | Not Active |  | Not Active | Not Active | Not Active | Not Active | Not Active |
| INSULIN HUMAN | Not Active | Not Active | Not Active | Not Active | Not Active | Not Active | Not Active | Not Active | Not Active |  | Not Active | Not Active | Not Active | Not Active | Not Active |
| POLYVINYL ALCOHOL | Not Active | Not Active | Not Active | Not Active | Not Active | Not Active | Not Active | Not Active | Not Active |  | Not Active | Not Active | Not Active | Not Active | Not Active |
